# Experimental data taken from patent publication US11679124B2, “Composition for use in the treatment of conditions caused by calcium deficiency” (Epicyt Pharma AB, priority 2018, dated 2023).
# Experiments:
# Type in all cases: cell-based, human
# Caco-2 cells = assay: Ca2+ transport across Caco-2 monolayer without calcium gradient; settings: 10 nM 1.25(OH)2-vitamin D3, last 48 hours; no Ca2+ gradient, 1.8 mM on each side
# Method: The Caco-2 cells were cultivated in on permeable support for 11-14 days, slightly modified according to Giuliano A. R., & Wood R. J. On the day of the experiments the trans-epithelial electrical resistance was measured and only preparations with values between 400 and 900 Ohms×cm^2 were counted. Tested substances were given in the top compartment and effect as read after 24 to 48 h. Ca^2+ flux was measured using liquid scintillation comparing the lower compartment with the upper.
# In the present experiment the Caco-2 cells were cultured and grown to epithelium-shaped confluence over 14 days. The following experiments were performed according to Giuliano A. R., & Wood R. J. The effect of 10 nM 1.25(OH)2-vitamin D3 on the calcium transport was tested during the last 48 hours. Flux was tested without calcium (Ca^2+) gradient, concentration of calcium was 1.8 mM on each side of the layer of cells.
# In the present experiment the Caco-2 cells were cultured and grown to epithelium-shaped confluence over 12 days. The cells were then grown in another 4 days in presence of 0.1 mM GCA, or in presence with 0.5 mM butyrate, or in presence of the GCA and butyrate in combination.
# The effect of 10 nM 1.25(OH)2-vitamin D3 on the calcium transport was tested during the last 48 hours. […]
# Hsp 90β = Hsp 90β expression in Caco-2 cells, western blot; settings: 48 h, GCA 1×10^−4 M, butyrate 5×10^−4 M, vs. vehicle control
# Method: Caco-2 cells with a passage or about 45 (number of time they have been divided) (Sigma-Aldrich Stockholm Sweden) were cultured in Dulbecco's Modified Eagle's Medium (Life Technologies Invitrogen AB, Lidingo, Sweden), with 10% Foetal Bovine Serum (FBS) (Life Technologies), 1% Non Essential Amino Acid (NEAA) (Life Technologies), 100 IU/mL Penicillin Streptomycin (Pen-Strep) (Life Technologies). The cells were incubated in 37° C. with 5% CO2 and cultured in a cell culture flask (BD Falcon®, VWR Internationals, Stockholm, Sweden) and the medium was changed at Monday, Wednesday and Friday every week. […]
# For the protein harvesting, the cells was scraped into lysis buffer in protein kinase blocking solution (1% Triton x-100, EDTA; ethylenediaminetetraacetic acid) containing protein kinase inhibitor buffer (10 mM potassium phosphate buffer pH 6.8, 10 mM 3-[(3-cholamidopropyl) dimethylammonio]-1-propane sulphonate (CHAPS: Boehringer Mannheim, Mannheim, Germany) and protease inhibitor cocktail tablet Complete (Roche Diagnostics AB, Stockholm, Sweden). After shaking several times on ice, the cell debris was removed by centrifugation (10000×g for 10 min at 4° C.) and the supernatant's protein content was analysed using the Bradford method. […]
# claudin-2 = assay: Claudin-2 protein expression in Caco-2 cells, western blot; settings: vitamin D 10 μM or 100 μM, geldanamycin 0.5 μM
# Method: Caco-2 cells with a passage or about 45 (number of time they have been divided) (Sigma-Aldrich Stockholm Sweden) were cultured in Dulbecco's Modified Eagle's Medium (Life Technologies Invitrogen AB, Lidingo, Sweden), with 10% Foetal Bovine Serum (FBS) (Life Technologies), 1% Non Essential Amino Acid (NEAA) (Life Technologies), 100 IU/mL Penicillin Streptomycin (Pen-Strep) (Life Technologies). The cells were incubated in 37° C. with 5% CO2 and cultured in a cell culture flask (BD Falcon®, VWR Internationals, Stockholm, Sweden) and the medium was changed at Monday, Wednesday and Friday every week.
# The cells were cultured for approximately 1 week before they were detached (0.25% trypsin-EDTA, Life Technologies) and seeded in 6 well plates with semipermeable filter inserts (3 μm pore size, BD Biosciences, Le Pont de Claix, France), 200 000 cells/well. At confluence the culture medium was changed to FBS-free in both the upper and lower well compartment and to the lower compartment also a mixture of […] insulin, 0.55 μg/mL transferring and 6.7 ng/mL selenium (ITS, Life Technologies) was added to establish cell polarity and structural differentiation (6-7). The cell monolayers were let to cultivate for 14 days before experiments. […]
compound,measurement,setting,value
C=C1/C(=C\C=C2/CCC[C@]3(C)[C@@H]([C@H](C)CCCC(C)(C)O)CC[C@@H]23)C[C@@H](O)C[C@@H]1O [1.25(OH)2-vitamin D3],calcium transport (Experiment 3),Caco-2 cells,active transport of vitamin D was confirmed
"C[C@H](CCC(=O)NCC(=O)O)[C@H]1CC[C@H]2[C@@H]3[C@H](O)C[C@@H]4C[C@H](O)CC[C@]4(C)[C@H]3C[C@H](O)[C@]12C [GCA, glycocholic acid]",Hsp 90β protein expression normalized to GAPDH,Hsp 90β,no effect by itself
vitamin-D,claudin-2 protein expression,claudin-2,increase claudin-2 protein expression
